Experimental data reported in patent publication US8618153B2, “Hepatitis C virus inhibitors” (Bristol-Myers Squibb Company, priority 2009, dated 2013).
Like-named read-outs stand apart in the source and are kept apart here.

System: HCV 1b genotype
Experiment: HCV Replicon assay (HCV-neo replicon cells), 1b genotype
Type: cell-based
Conditions: Hepatitis C virus, HCV 1b genotype replicon, read-out: 1b EC50 (in μM or range)
Procedure: An HCV Replicon assay was utilized in the present disclosure, and was prepared, conducted and validated as described in commonly owned PCT/US2006/022197 and in O'Boyle et al., Antimicrob. Agents Chemother., 49(4):1346-1353 (April 2005). Assay methods incorporating luciferase reporters have also been used as described (Apath.com).
HCV-neo replicon cells and replicon cells containing mutations in the NS5A region were used to test the currently described family of compounds. The compounds were determined to have more than 10-fold less inhibitory activity on cells containing mutations than wild-type cells. Thus, the compounds of the present disclosure can be effective in inhibiting the function of the HCV NS5A protein and are understood to be as effective in combinations as previously described in application PCT/US2006/022197 and commonly owned WO 04/014852. Further, the compounds of the present disclosure can be effective against the HCV 1b genotype. It should also be understood that the compounds of the present disclosure can inhibit multiple genotypes of HCV. […] In one embodiment compounds of the present disclosure are inhibitory versus 1a, 1b, 2a, 2b, 3a, 4a, and 5a genotypes. […] The compounds of the present disclosure may inhibit HCV by mechanisms in addition to or other than NS5A inhibition. In one embodiment the compounds of the present disclosure inhibit HCV replicon and in another embodiment the compounds of the present disclosure inhibit NS5A.

Structure (SMILES)	EC50 (value given as range class) [µM]	EC50 (numeric value) [µM]
COC(=O)N[C@@H](C)C(=O)N1CCC[C@H]1c1nc(/C=C/c2ccc(/C=C/c3cnc([C@@H]4CCCN4C(=O)[C@H](C)NC(=O)OC)[nH]3)cc2)c[nH]1 [Example 37, methyl ((1S)-2-((2S)-2-(4-((E)-2-(4-((E)-2-(2-((2S)-1-(N-(methoxycarbonyl)-L-alanyl)-2-pyrrolidinyl)-1H-imidazol-4-yl)vinyl)phenyl)vinyl)-1H-imidazol-2-yl)-1-pyrrolidinyl)-1-methyl-2-oxoethyl)carbamate]	< 0.001	
COC(=O)N[C@H](C(=O)N1CCC[C@H]1c1nc(/C=C/c2ccc(/C=C/c3cnc([C@@H]4CCCN4C(=O)[C@@H](NC(=O)OC)C(C)C)[nH]3)cc2)c[nH]1)C(C)C [Example 38, methyl ((1S)-1-(((2S)-2-(4-((E)-2-(4-((E)-2-(2-((2S)-1-((2S)-2-((methoxycarbonyl)amino)-3-methylbutanoyl)-2-pyrrolidinyl)-1H-imidazol-4-yl)vinyl)phenyl)vinyl)-1H-imidazol-2-yl)-1-pyrrolidinyl)carbonyl)-2-methylpropyl)carbamate]	< 0.001	
COC(=O)N[C@H](C(=O)N1CCC[C@H]1c1nc(/C=C/c2ccc(/C=C/c3cnc([C@@H]4CCCN4C(=O)[C@@H](NC(=O)OC)[C@@H](C)OC)[nH]3)cc2)c[nH]1)[C@@H](C)OC [Example 39, methyl ((1S,2R)-2-methoxy-1-(((2S)-2-(4-((E)-2-(4-((E)-2-(2-((2S)-1-(N-(methoxycarbonyl)-O-methyl-L-threonyl)-2-pyrrolidinyl)-1H-imidazol-4-yl)vinyl)phenyl)vinyl)-1H-imidazol-2-yl)-1-pyrrolidinyl)carbonyl)propyl)carbamate]	< 0.001	
CCN(CC)[C@@H](C(=O)N1CCC[C@H]1c1nc(CCc2ccc(CCc3cnc([C@@H]4CCCN4C(=O)[C@@H](c4ccccc4)N(CC)CC)[nH]3)cc2)c[nH]1)c1ccccc1 [Example 40, (1R)-2-((2S)-2-(4-(2-(4-(2-(2-((2S)-1-((2R)-2-(diethylamino)-2-phenylacetyl)-2-pyrrolidinyl)-1H-imidazol-5-yl)ethyl)phenyl)ethyl)-1H-imidazol-2-yl)-1-pyrrolidinyl)-N,N-diethyl-2-oxo-1-phenylethanamine]	< 0.001	
COC(=O)N[C@@H](C(=O)N1CCC[C@H]1c1nc(CCc2ccc(CCc3cnc([C@@H]4CCCN4C(=O)[C@H](NC(=O)OC)c4ccccc4)[nH]3)cc2)c[nH]1)c1ccccc1 [Example 41, dimethyl (1,4-phenylenebis(2,1-ethanediyl-1H-imidazole-4,2-diyl(2S)-2,1-pyrrolidinediyl((1R)-2-oxo-1-phenyl-2,1-ethanediyl)))biscarbamate]	< 0.001	
COC(=O)N[C@@H](C)C(=O)N1CCC[C@H]1c1nc(CCc2ccc(CCc3cnc([C@@H]4CCCN4C(=O)[C@H](C)NC(=O)OC)[nH]3)cc2)c[nH]1 [Example 42, methyl ((1S)-2-((2S)-2-(4-(2-(4-(2-(2-((2S)-1-(N-(methoxycarbonyl)-L-alanyl)-2-pyrrolidinyl)-1H-imidazol-4-yl)ethyl)phenyl)ethyl)-1H-imidazol-2-yl)-1-pyrrolidinyl)-1-methyl-2-oxoethyl)carbamate]		0.274
COC(=O)N[C@H](C(=O)N1CCC[C@H]1c1nc(CCc2ccc(CCc3cnc([C@@H]4CCCN4C(=O)[C@@H](NC(=O)OC)C(C)C)[nH]3)cc2)c[nH]1)C(C)C [Example 43, methyl ((1S)-1-(((2S)-2-(4-(2-(4-(2-(2-((2S)-1-((2S)-2-((methoxycarbonyl)amino)-3-methylbutanoyl)-2-pyrrolidinyl)-1H-imidazol-4-yl)ethyl)phenyl)ethyl)-1H-imidazol-2-yl)-1-pyrrolidinyl)carbonyl)-2-methylpropyl)carbamate]	0.001 to 0.01	
COC(=O)N[C@H](C(=O)N1CCC[C@H]1c1nc(CCc2ccc(CCc3cnc([C@@H]4CCCN4C(=O)[C@@H](NC(=O)OC)[C@@H](C)OC)[nH]3)cc2)c[nH]1)[C@@H](C)OC [Example 44, methyl ((1S,2R)-2-methoxy-1-(((2S)-2-(4-(2-(4-(2-(2-((2S)-1-(N-(methoxycarbonyl)-O-methyl-L-threonyl)-2-pyrrolidinyl)-1H-imidazol-4-yl)ethyl)phenyl)ethyl)-1H-imidazol-2-yl)-1-pyrrolidinyl)carbonyl)propyl)carbamate]	0.01 to 10	
COC(=O)N[C@@H](C(=O)N1CCC[C@H]1c1ncc(C#Cc2ccc(-c3cnc([C@@H]4CCCN4C(=O)[C@H](NC(=O)OC)c4ccccc4)[nH]3)cc2)[nH]1)c1ccccc1 [Example M1, Methyl ((1R)-2-((2S)-2-(4-(4-((2-((2S)-1-((2R)-2-((methoxycarbonyl)amino)-2-phenylacetyl)-2-pyrrolidinyl)-1H-imidazol-4-yl)ethynyl)phenyl)-1H-imidazol-2-yl)-1-pyrrolidinyl)-2-oxo-1-phenylethyl)carbamate]	< 0.001	
COC(=O)N[C@@H](C(=O)N1CCC[C@H]1c1ncc(CCc2ccc(-c3cnc([C@@H]4CCCN4C(=O)[C@H](NC(=O)OC)c4ccccc4)[nH]3)cc2)[nH]1)c1ccccc1 [Example M2, Methyl ((1R)-2-((2S)-2-(4-(4-(2-(2-((2S)-1-((2R)-2-((methoxycarbonyl)amino)-2-phenylacetyl)-2-pyrrolidinyl)-1H-imidazol-4-yl)ethyl)phenyl)-1H-imidazol-2-yl)-1-pyrrolidinyl)-2-oxo-1-phenylethyl)carbamate]	< 0.001	
CN(C)[C@@H](C(=O)N1CCC[C@H]1c1ncc(CCc2ccc(-c3cnc([C@@H]4CCCN4C(=O)[C@@H](c4ccccc4)N(C)C)[nH]3)cc2)[nH]1)c1ccccc1 [Example M3, [(1R)-2-((2S)-2-(4-(4-(2-(2-((2S)-1-((2R)-2-(Dimethylamino)-2-phenylacetyl)-2-pyrrolidinyl)-1H-imidazol-4-yl)ethyl)phenyl)-1H-imidazol-2-yl)-1-pyrrolidinyl)-N,N-dimethyl-2-oxo-1-phenylethanamine]]	0.001 to 0.01	
COC(=O)N[C@H](C(=O)N1CCC[C@H]1c1ncc(C#Cc2ccc(C#Cc3cnc([C@@H]4CCCN4C(=O)[C@@H](NC(=O)OC)C(C)C)[nH]3)cc2)[nH]1)C(C)C [Example M4, Methyl((1S)-1-(((2S)-2-(4-((4-((2-((2S)-1-((2S)-2-((methoxycarbonyl)amino)-3-methylbutanoyl)-2-pyrrolidinyl)-1H-imidazol-4-yl)ethynyl)phenyl)ethynyl)-1H-imidazol-2-yl)-1-pyrrolidinyl)carbonyl)-2-methylpropyl)carbamate]	< 0.001	
COC(=O)N[C@H](C(=O)N1CCC[C@H]1c1nc(C#Cc2ccc(C#Cc3c[nH]c([C@@H]4CCCN4C(=O)[C@@H](NC(=O)OC)[C@@H](C)OC)n3)cc2)c[nH]1)[C@@H](C)OC [Example M5, Methyl ((1S,2R)-2-methoxy-1-(((2S)-2-(4-((4-((2-((2S)-1-(N-(methoxycarbonyl)-O-methyl-L-threonyl)-2-pyrrolidinyl)-1H-imidazol-4-yl)ethynyl)phenyl)ethynyl)-1H-imidazol-2-yl)-1-pyrrolidinyl)carbonyl)propyl)carbamate]	< 0.001	
COC(=O)N[C@@H](C)C(=O)N1CCC[C@H]1c1nc(C#Cc2ccc(C#Cc3c[nH]c([C@@H]4CCCN4C(=O)[C@H](C)NC(=O)OC)n3)cc2)c[nH]1 [Example M6, Methyl ((1S)-2-((2S)-2-(4-((4-((2-((2S)-1-(N-(methoxycarbonyl)-L-alanyl)-2-pyrrolidinyl)-1H-imidazol-4-yl)ethynyl)phenyl)ethynyl)-1H-imidazol-2-yl)-1-pyrrolidinyl)-1-methyl-2-oxoethyl)carbamate]	0.001 to 0.01	
COCC[C@H](NC(=O)OC)C(=O)N1CCC[C@H]1c1nc(C#Cc2ccc(C#Cc3c[nH]c([C@@H]4CCCN4C(=O)[C@H](CCOC)NC(=O)OC)n3)cc2)c[nH]1 [Example M7, Methyl ((1S)-3-methoxy-1-(((2S)-2-(4-((4-((2-((2S)-1-(N-(methoxycarbonyl)-O-methyl-L-homoseryl)-2-pyrrolidinyl)-1H-imidazol-4-yl)ethynyl)phenyl)ethynyl)-1H-imidazol-2-yl)-1-pyrrolidinyl)carbonyl)propyl)carbamate]	< 0.001	
